Assay results from the NIST ThermoML archive (doi:10.1016/j.jct.2016.09.041).

Conditions: for molar entropy: 101.33 kPa, Small (less than 1 g) adiabatic calorimetry

N[C@@H](Cc1c[nH]c2ccccc12)C(=O)O [L-tryptophan]
molar entropy [J/K/mol]
Conditions	Crystal	Crystal 1
5 K	0.2245	–
10 K	1.663	–
15 K	4.49	–
20 K	8.314	–
25 K	12.64	–
30 K	17.46	–
35 K	22.45	–
40 K	27.52	–
45 K	32.59	–
50 K	37.66	–
60 K	47.73	–
70 K	57.7	–
79.2 K	66.6	66.6
80 K	–	67.26
90 K	–	76.16
100 K	–	84.89
110 K	–	93.54
120 K	–	102.02
130 K	–	110.25
140 K	–	118.48
150 K	–	126.63
160 K	–	134.61
170 K	–	142.59
180 K	–	150.49
190 K	–	158.39
200 K	–	166.21
210 K	–	174.02
220 K	–	181.75
230 K	–	189.49
240 K	–	197.22
250 K	–	204.87
260 K	–	212.6
270 K	–	220.33
280 K	–	228.07
290 K	–	235.72
298.15 K	–	242.03
300 K	–	243.45
310 K	–	251.1
320 K	–	258.75
330 K	–	266.31
340 K	–	273.88
350 K	–	281.53
360 K	–	289.09
370 K	–	296.66

Conditions	Triple point temperature [K]
Crystal 2, Adiabatic calorimetry	79.2
